From patent US10160948B2, “Pluripotent embryonic-like stem cells, compositions, methods and uses thereof” (ABT HOLDING COMPANY, priority 1999, dated 2018)

What was measured:
[1] = system: phenotypic expression markers (ectodermal, mesodermal, endodermal, embryonic); experiment: Immunochemical and histochemical phenotypic analysis of human cell lines incubated with serum + insulin (I) + dexamethasone (D); type: cell-based
Description: Additional immunochemical and histochemical studies were performed with a series of human cell lines. Human cells CF-NHDF2 (derived from person dermis) were propogated to various doubling numbers (cell doublings of between 12 and 47), and examined, as above, for multiple induced mesodermal, ectodermal, endodermal and embryonic lineages. Human cells CM-SkM2 and CF-SkM2, were similarly examined, after propogation to 12 cell doublings. TABLES 7-9 provides the results of examination of the human cells CF-NHDF2 at progressive cell doublings, under different growth conditions. TABLE 10 provides the results of examination of the human cells CM-SkM2, and CF-SkM2 at progressive cell doublings, under different growth conditions.
Phenotypic Analysis. The cryopreserved cells were thawed and seeded at 1×10^3 cells per well of 1% gelatinized 96-well plates (Corning, Corning, N.Y.).15,16 The cell lines were incubated with CM only (non-induced) or CM+insulin and/or dexamethasone in a comparison/contrast analysis system to ascertain induced phenotypic expression.7,15 In this assay, insulin accelerates phenotypic expression of lineage-committed progenitor cells but has no effect on the induction of lineage-commitment and subsequent phenotypic expression in pluripotent cells.
Cells were cultured for 30-56 days in CM, CM+[…] insulin, or CM+10^−6M Dexamethasone+/−insulin+1%, 5%, or 10% horse serum. […]

pluripotent stem cells = experiment: Proliferation and phenotypic responses to bioactive factors: pluripotent cells; type: cell-based
Text: Having access to mixed populations of progenitor stem cells, progenitor stem cell clones, and pluripotent stem cell clones permits one to address the influence of various bioactive factors (e.g. recombinant growth factors, purified compounds, and novel inductive factors) on the growth characteristics and phenotypic expression of these stem cells.
Cryopreserved cells are thawed and plated in MSC-1 at 5, 10, or 20×10^3 cells per well of gelatinized 24-well plates following the standard protocol. Twenty-four hours after initial plating the medium is changed to testing medium (TM) 1 to 6 (TM-1, TM-2, TM-3, TM-4, TM-5, or TM-6). TM-1 to TM-4 consist of Ultraculture (cat. no. 12-725B, lot. nos. OMO455 [TM-1], 1M1724 [TM-2], 2M0420 [TM-3], or 2M0274 [TM-4], Bio-Whittaker, Walkersville, Md.), medium (EMEM or Opti-MEM 0.01 mM β-mercaptoethanol), and 1% (v/v) antibiotic-antimycotic, pH 7.4. TM-5 consists of 98% (v/v) medium, 1% (v/v) HS, and 1% (v/v) antibiotic-antimycotic, pH 7.4. TM-6 consists of 98.5% (v/v) medium, 0.5% (v/v) HS, and 1% (v/v) antibiotic-antimycotic, pH 7.4. […] Four testing media (TM#'s 1-4), each containing various concentrations of Ultraculture, were used as. […] The four Ultraculture-based testing media were: TM-1=15% (v/v) Ultraculture (Lot no. OMO455): 84% (v/v) medium: 1% (v/v) antibiotics; TM-2=15% (v/v) Ultraculture (Lot no. 1M1724): 84% (v/v) medium: 1% (v/v) antibiotics; TM-3=50% (v/v) Ultraculture (Lot no. 2M0420): 49% (v/v) medium: 1% (v/v) antibiotics; and TM-4=75% (v/v) Ultraculture (Lot no. 2M0274): 24% (v/v) medium: 1% (v/v) antibiotics. Pre-incubation for 24 hr in testing medium alone is used to wash out any potential synergistic components in the MSC-1 medium. Twenty-four hours later the testing medium is changed to one of the following. For controls, TM-1 to TM-6 alone is used. To identify clones of progenitor cells, the medium is replaced with TM-1 to TM-6 containing 2 μg/ml insulin (Sigma), an agent that accelerates the appearance of phenotypic expression markers in progenitor cells (TABLE 12). To identify clones of pluripotent cells, the medium is replaced with TM-1 to TM-6 containing 10^−10 to 10^−6 M dexamethasone (Sigma), a general non-specific lineage-inductive agent (TABLE 13). Control and treated cultures are propagated for an additional 30-45 days with medium changes every other day. Four culture wells are used per concentration per experiment. During the 0-45 day time period the cultures are examined subjectively for changes in morphological characteristics on a daily basis. Alterations in phenotypic expression are correlated with the days of treatment and associated insulin or dexamethasone concentrations. The experiment is then repeated utilizing these parameters to confirm objectively the phenotypic expression markers using established histological, functional/histochemical, ELICA/flow cytometry, and molecular assays (TABLE 13).

## insulin
[1]
  effect on morphology and antigen staining of NHDF2 and PAL3 cells: No change in morphology or change in antigen staining
Pluripotent stem cells
  Proliferation, Pluripotent: number of times the agent increased the DNA content per well versus its respective control: 1 times
Pluripotent stem cells; pluripotent and progenitor cells
  activity on pluripotent and progenitor stem cells, in words: stimulated lineage-progression in all progenitor cells, but had no measurable effect on pluripotent cells
Pluripotent stem cells; presence and approximate distribution of differentiated phenotypes within the culture wells
  Phenotypic Expression, Pluripotent: 0
